Laboratory results reported in patent US20120108422A1, “Antifungal 1,2,4-triazolyl Derivatives” (BASF SE, priority 2009, published 2012).

Assay: physchem

| Structure (SMILES) | logP |
| --- | --- |
| CC(Cc1ccc(F)cc1F)CC(O)(Cn1nc[nH]c1=S)C(C)(C)C (centres unmarked) [Example 2, 2-[2-tert-butyl-5-(2,4-difluorophenyl)-2-hydroxy-4-methyl-pentyl]-2,4-dihydro-[1,2,4]triazole-3-thione] | 3.8 |
| CC(C)(C)C(O)(CCCc1ccc(F)cc1F)Cn1nc[nH]c1=S (centres unmarked) [Example 10, 2-[2-tert-butyl-5-(2,4-difluoro-phenyl)-2-hydroxy-pentyl]-2,4-dihydro-[1,2,4]triazole-3-thione] | 3.3 |
| CC(C)(C)C(O)(CCCCc1ccc(F)cc1)Cn1nc[nH]c1=S (centres unmarked) [Example 15, 1-[2-tert-Butyl-6-(4-fluorophenyl)-2-hydroxyhexyl]-1H-1,2,4-triazole-5(4H)-thione] | 3.7 |
| CC(C)(C)C(O)(CCCCc1ccccc1)Cn1nc[nH]c1=S (centres unmarked) [Example 16, 1-[2-tert-butyl-6-phenyl-2-hydroxyhexyl]-1H-1,2,4-triazole-5(4H)-thione] | 3.6 |
| CC(C)(C)C(O)(CCCCc1ccc(Cl)cc1)Cn1nc[nH]c1=S (centres unmarked) [Example 17, 1-[2-tert-butyl-6-(4-chlorophenyl)-2-hydroxyhexyl]-1H-1,2,4-triazole-5(4H)-thione] | 4.2 |
| CC(C)(C)C(O)(CCCCc1ccccc1Cl)Cn1nc[nH]c1=S (centres unmarked) [Example 18, 1-[2-tert-butyl-6-(2-chlorophenyl)-2-hydroxyhexyl]-1H-1,2,4-triazole-5(4H)-thione] | 4 |
| CC(C)(C)C(O)(CCCCc1ccccc1F)Cn1nc[nH]c1=S (centres unmarked) [Example 19, 1-[2-tert-butyl-6-(2-fluorophenyl)-2-hydroxyhexyl]-1H-1,2,4-triazole-5(4H)-thione] | 3.4 |
| CC(C)(C)C(O)(CCCCc1ccc(Cl)cc1Cl)Cn1nc[nH]c1=S (centres unmarked) [Example 20, 1-[2-tert-butyl-6-(2,4-dichlorophenyl)-2-hydroxyhexyl]-1H-1,2,4-triazole-5(4H)-thione] | 4.7 |
| CC(C)(C)C(O)(CCCCCc1ccc(F)cc1)Cn1nc[nH]c1=S (centres unmarked) [Example 21, 1-[2-tert-butyl-7-(4-fluorophenyl)-2-hydroxyheptyl]-1H-1,2,4-triazole-5(4H)-thione] | 4 |
| CC(C)(C)C(O)(CCCCCc1ccccc1F)Cn1nc[nH]c1=S (centres unmarked) [Example 22, 1-[2-tert-butyl-7-(2-fluorophenyl)-2-hydroxyheptyl]-1H-1,2,4-triazole-5(4H)-thione] | 4.2 |
| CC(C)(C)C(O)(CCCCCc1ccc(Cl)cc1)Cn1nc[nH]c1=S (centres unmarked) [Example 23, 1-[2-tert-butyl-7-(4-chlorophenyl)-2-hydroxyheptyl]-1H-1,2,4-triazole-5(4H)-thione] | 4.4 |
